Results reported in patent US10035780B2, “Quinazoline scaffold based compounds, pharmaceutical compositions and methods of use thereof” (TECHNION RESEARCH & DEVELOPMENT FOUNDATION LTD., priority 2014, dated 2018).
“Also recorded” adds a separate entry of the source.

Tests used:
[1] = test system: U118MG cells; assay: Protection against cell death induced by glutamate in U118MG cell culture; format: cell-based, human
Experimental: Cell cultures of various human glial type cell lines (T98G, U87MG, A172, U118MG), as well as human neuronal type cell lines SH-SY 5Y and Be(2)-C were used to test the new compounds. In addition, the rat glioma cell line C6 was used. PC12 cells originating from rats were used as another cell line displaying neuronal characteristics. The applicants also have produced, by genetic manipulation, a modified rat C6 glial cell strain and a modified human U118MG glial type cell strain, both under-expressing the TSPO, which allows to study TSPO specific effects, including of the compounds of the invention, which can be done according to methods described previously (Weisinger et al. Biochemistry. 2004; 43:12315-21; Levin et al. 2005; Zeno et al., 2009).
The protective capabilities of the compounds of the invention and involvement of the TSPO were tested in cell culture, using cell lines of glial and neuronal type, cultured and testing according to standard methods (Kugler et al. 2008; Zeno et al. 2009; Dadon-Nachum et al. Stem Cell Rev. 2011; 7:664-71). Furthermore, primary cell cultures are also used (Banker, G. et al. Culturing Nerve Cells, 2nd Edition, The MIT Press (1998). Treatments included: (1) exposure to glutamate (35 mM), Abeta(1-42), NH4Cl, CoCl2, and nitric oxide (NO) donors, in order to mimic particular aspects of neurodegeneration; (2) treatment with the novel compounds and with traditional TSPO ligands as comparative treatment; and (3) TSPO knockdown by genetic manipulation.
(§1) Techniques and parameters assayed are summarized here: Total protein levels (Bradford. Anal Biochem. 1976; 72:248-54); TSPO ligand binding assays (Kugler et al. 2008; Levin et al. 2005; Danovich et al. Eur Neuropsychopharmacol. 2008; 18:24-33) cell death, including apoptosis and necrosis and related molecular biological processes (Soustiel et al. Neuropathol Appl Neurobiol. 2008; 34:412-23; Soustiel et al. Exp Neurol. 2008; 214:201-8; Zeno et al. 2009); mitochondrial transmembrane potential collapse (Chelli et al. Biochem Pharmacol. 2004; 68:125-34; Kugler et al. 2008; Zeno et al., 2009; Shargorodsky et al. Apoptosis. 2012; 17:647-65), reactive oxygen species (ROS) generation as a measure of oxidative stress (Veenman et al. 2008; Zeno et al. 2009); TSPO knockdown (Levin et al. 2005; Zeno et al. 2009); expression levels of mitochondrial TSPO and associated proteins (Veenman et al. 2002; Levin et al. 2005; Veenman et al. 2008); gene expression with RT-PCR and microarray analysis (Bode et al. 2012; Veenman et al. 2012). Parameters of inflammation, immune response, migration, and the cell cycle are also tested. All these approaches can also be applied for quality control of the compounds.
The compounds of the invention protect against cell death induced by glutamate in cell culture of U118MG cells of astrocytic origin (FIGS. 1, 2, 3 and 8) or SH SY 6Y cells of neuronal origin (FIG. 4). […] In the control group, 35 mM of glutamate killed ˜60% of the cells.
The experimental setup is explained using FIG. 8B as an example: • 1. Control: Cell death levels are taken as 0% • 2. Glu: Cell death levels induced by glutamate are over 50% • 3. […] Glu+Cpd 5: When Cpd 5 is given as a treatment to counteract cell death induced by glutamate, increasing concentrations of Cpd 5 reduce cell death levels from over 50% to less than 5%.

[2] = Stability on storage; format: physicochemical; settings: several months of storage
[3] = test system: R6-2 mice; assay: Lifespan of R6-2 mice, transgenic model for Huntington Disease; format: in vivo, mouse; settings: daily s.c. injections 5 days a week from week 5, vs DMSO and saline
From the text: For the assays described herein systemic injections of kainic in rats were applied and also contusion (Veenman et al. 2002; Soustiel et al. Neuropathol Appl Neurobiol. 2008; Soustiel et al. Exp Neurol. 2008). These models present very well defined cell death in the brain. Cell death in the brain is the major pathological characteristic of progressing neurodegeneration common to brain diseases. As the compounds of the present invention are designed to prevent cell death in the brain as a consequence of disease and progressing brain damage after injury, including behavioral impairments, animal models displaying cell death in the brain are the models of choice for displaying the protective capabilities of the compounds of the invention. For these reasons the R6-2 model for Huntington Disease was chosen to test the effectiveness of Compound 1 and to compare the effectiveness of Compound 1 with those of the compound of U.S. Pat. No. 8,541,428 (Cpd A) and with the classical TSPO ligand PK 11195, as well as other compounds disclosed herein. Compounds 5 and 6 were also tested in the same R6-2 model.
R6-2 is a transgenic mouse model for Huntington Disease. Huntington Disease in humans is a hereditary neurodegenerative disease affecting motor performance and finally leading to death of the patients having the disease. R6-2 mice (˜120 CAG repeats B6CBA-Tg(HDexon1)62 Gpb/3J) mice were used for the experiments described below. For this purpose, mice obtained from the Jackson Laboratory (ME) were bred. In particular: males genotype: Hemizygous for Tg(HDexon1)62 Gpb, and females from the wildtype background strain B6CBAF1/J were bred according to the protocol of Jackson Laboratory. The male heterozygote offspring (R6-2 mice) were used for determining life span and motor activity, with and without drug treatment. Drug treatment consisted of daily (5 continuous days a week) subcutaneous injections of mice with 20 μl of: saline (sham control), vehicle DMSO (vehicle control), classic TSPO ligand PK 11195 (15 mg/kg), prior art Compound A (15 mg/kg), Compound 1 (15 mg/kg), and compound 1 (7.5 mg/kg). Drug treatment started on week 5 after birth. Quantities were used according to previous studies regarding TSPO ligands.
Apart from the behavioral experiments, mice were observed daily, and the day of death was noted. Behavioral experiments included distance covered in an open field apparatus, and tremor measurements.
R6-2 mice were used as previously described in Example 5. In one experiment, treatment consisted of daily (5 continuous days per week) subcutaneous injections of mice with 20 μl of vehicle DMSO (control, n=10) and Compound 6 (7.5 mg/kg, n=12). In a separate experiment, compound 5 (7.5 mg/kg, n=5) was tested, compared to DMSO control (n=5).

[4] = test system: U118MG cells; assay: Collapse of the mitochondrial membrane potential (ΔΨm) induced by glutamate; format: cell-based, human; settings: glutamate exposed cells
From the text: as §1
Compound 1 is very effective at a concentration of 25 μM in this model (in order to achieve the same effect with the classical TSPO ligand PK 11195 a concentration of 50 μM has to be applied (data not shown).

For `CCN(C)C(=O)Oc1nc(-c2ccccc2)nc2ccccc12` [Compound 1, 2-phenylquinazolin-4-yl ethyl(methyl)carbamate], the “protection against cell death induced by glutamate” value ([1]; U118MG cells, 35 mM glutamate, compound 1-100 μM) was “significantly protects; also recorded: protect better and more consistently; also recorded: significantly reduces glutamate-induced cell death levels”, the “Protection against glutamate-induced cell death” value ([1]; cell culture, grade in words) was “Excellent” and the “lethal effect of compound by itself” value ([1]; compound alone, no glutamate) was “only very little lethal effect by itself”. The stability on storage [2] was “stable over several months of storage”, the effect on lifespan [3] was “increases average lifespan; also recorded: extends the life span” and the effect on lifespan ([3]; listed as compound 1) was “enhanced lifespan”. For the same compound, the “concentration very effective in preventing ΔΨm collapse” value [4] was 25 µM, the “prevention of ΔΨm collapse induced by glutamate” value [4] was “prevents collapse” and the “prevention of ΔΨm collapse induced by glutamate” value ([4]; listed as Cpd 1) was “prevented”.
